According to patent US20110014243A1, “PHARMACEUTICAL COMPOSITIONS” (priority 2007, published 2011):

Test: Stability of milled and unmilled Compound 1A in combination with calcium carbonate, HPLC
Type: physicochemical
Conditions: mixed with calcium carbonate, open vials at 50° C. and 75% relative humidity
Experimental: Samples containing 1092 mg of calcium carbonate and […] Compound 1A (either milled or unmilled) were prepared and weighed into small amber glass bottles. Samples were stored in open vials at 50° C. and 75% relative humidity. The samples were then removed after two or four weeks and stored at room temperature for up to four days prior to being analysed and were stored in open vials at 50° C. and 75% RH. The blends of Compound 1A and calcium carbonate were transferred to a glass volumetric flask and diluted to a volume of 10 ml or 100 ml with a 0.05% trifluoroacetic acid (TFA) solution in 50/50 acetonitrile/water to provide a 1 mg/ml solution of Compound 1A. The solution was stirred using a magnetic stirrer for 20 minutes then left for 5 minutes before 1 ml aliquots were taken using a plastic syringe. The aliquots were filtered through a 0.45 μm syringe filter into amber glass vials for HPLC analysis.

Measured: area % of Compound 2A compared to Compound 1A

CC(C)c1cc(Oc2c(Br)cc(NC(=O)CC(=O)O)cc2Br)ccc1O [Compound 1A, 3-[[3,5-Dibromo-4-[4-hydroxy-3-(1-methylethyl)-phenoxy]-phenyl]-amino]-3-oxopropanoic acid]
0.2 area %: milled, 2 weeks | milled, 4 weeks | unmilled, 2 weeks | unmilled, 4 weeks
